Where two headings read alike, the source gives them in different places.
Tests used:
[1] = Metabolic stability in mouse liver microsomes (MLM)
[2] = Metabolic stability in human liver microsomes (HLM)
NTRK2 = NTRK2 (Homo sapiens (Human), UniProt Q16620); assay: NTRK2 inhibition (IC50); format: biochemical
NTRK1 = NTRK1 (Homo sapiens (Human), UniProt P04629); assay: NTRK1 inhibition (IC50)
NTRK3 = NTRK3 (Homo sapiens (Human), UniProt Q16288); assay: NTRK3 inhibition (IC50); details: read-out: NTRK3 IC50
Sequence of NTRK3 (Q16288 32-839): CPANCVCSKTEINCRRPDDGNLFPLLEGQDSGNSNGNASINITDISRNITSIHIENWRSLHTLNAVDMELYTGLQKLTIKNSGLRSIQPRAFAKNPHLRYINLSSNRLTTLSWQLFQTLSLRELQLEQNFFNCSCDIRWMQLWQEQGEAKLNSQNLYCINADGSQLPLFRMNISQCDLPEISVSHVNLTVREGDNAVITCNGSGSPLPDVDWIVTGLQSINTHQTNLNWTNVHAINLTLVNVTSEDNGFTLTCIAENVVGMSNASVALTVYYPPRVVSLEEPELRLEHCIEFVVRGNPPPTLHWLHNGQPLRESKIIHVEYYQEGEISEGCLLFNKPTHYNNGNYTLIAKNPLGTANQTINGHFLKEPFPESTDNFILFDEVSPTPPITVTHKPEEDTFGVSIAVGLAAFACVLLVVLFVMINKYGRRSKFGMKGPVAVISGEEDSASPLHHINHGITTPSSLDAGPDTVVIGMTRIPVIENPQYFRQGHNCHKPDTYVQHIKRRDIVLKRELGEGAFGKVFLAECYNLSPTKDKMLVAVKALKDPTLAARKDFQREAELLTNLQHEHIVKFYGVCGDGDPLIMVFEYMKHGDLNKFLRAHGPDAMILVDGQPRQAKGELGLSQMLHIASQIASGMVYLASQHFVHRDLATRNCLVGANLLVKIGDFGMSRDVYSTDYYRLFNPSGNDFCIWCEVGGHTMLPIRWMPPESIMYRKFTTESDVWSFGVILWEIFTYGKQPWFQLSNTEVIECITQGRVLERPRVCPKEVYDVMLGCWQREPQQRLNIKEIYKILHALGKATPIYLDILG

Sequence of NTRK2 (Q16620 32-822): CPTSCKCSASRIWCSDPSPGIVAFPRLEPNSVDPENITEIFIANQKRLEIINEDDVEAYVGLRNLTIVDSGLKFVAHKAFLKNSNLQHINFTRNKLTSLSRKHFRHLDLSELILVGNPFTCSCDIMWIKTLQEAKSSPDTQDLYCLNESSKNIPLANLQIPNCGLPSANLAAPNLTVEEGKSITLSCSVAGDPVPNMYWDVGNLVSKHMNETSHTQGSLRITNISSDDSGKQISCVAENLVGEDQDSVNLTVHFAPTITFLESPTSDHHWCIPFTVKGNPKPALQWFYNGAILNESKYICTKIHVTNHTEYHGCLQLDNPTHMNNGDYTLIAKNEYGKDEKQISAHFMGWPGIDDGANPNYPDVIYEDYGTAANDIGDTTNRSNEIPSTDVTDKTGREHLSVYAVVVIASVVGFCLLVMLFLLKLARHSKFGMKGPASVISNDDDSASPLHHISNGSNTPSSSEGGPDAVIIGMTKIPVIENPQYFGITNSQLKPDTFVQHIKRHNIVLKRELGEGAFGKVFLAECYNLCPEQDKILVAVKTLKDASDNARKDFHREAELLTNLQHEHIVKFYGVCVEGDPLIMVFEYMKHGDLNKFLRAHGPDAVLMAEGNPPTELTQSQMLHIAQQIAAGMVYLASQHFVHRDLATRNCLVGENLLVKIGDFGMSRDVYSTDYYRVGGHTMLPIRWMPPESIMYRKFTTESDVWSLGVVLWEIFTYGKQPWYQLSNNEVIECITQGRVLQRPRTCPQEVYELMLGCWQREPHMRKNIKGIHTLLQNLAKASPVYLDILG
Sequence of NTRK1 (P04629 33-796): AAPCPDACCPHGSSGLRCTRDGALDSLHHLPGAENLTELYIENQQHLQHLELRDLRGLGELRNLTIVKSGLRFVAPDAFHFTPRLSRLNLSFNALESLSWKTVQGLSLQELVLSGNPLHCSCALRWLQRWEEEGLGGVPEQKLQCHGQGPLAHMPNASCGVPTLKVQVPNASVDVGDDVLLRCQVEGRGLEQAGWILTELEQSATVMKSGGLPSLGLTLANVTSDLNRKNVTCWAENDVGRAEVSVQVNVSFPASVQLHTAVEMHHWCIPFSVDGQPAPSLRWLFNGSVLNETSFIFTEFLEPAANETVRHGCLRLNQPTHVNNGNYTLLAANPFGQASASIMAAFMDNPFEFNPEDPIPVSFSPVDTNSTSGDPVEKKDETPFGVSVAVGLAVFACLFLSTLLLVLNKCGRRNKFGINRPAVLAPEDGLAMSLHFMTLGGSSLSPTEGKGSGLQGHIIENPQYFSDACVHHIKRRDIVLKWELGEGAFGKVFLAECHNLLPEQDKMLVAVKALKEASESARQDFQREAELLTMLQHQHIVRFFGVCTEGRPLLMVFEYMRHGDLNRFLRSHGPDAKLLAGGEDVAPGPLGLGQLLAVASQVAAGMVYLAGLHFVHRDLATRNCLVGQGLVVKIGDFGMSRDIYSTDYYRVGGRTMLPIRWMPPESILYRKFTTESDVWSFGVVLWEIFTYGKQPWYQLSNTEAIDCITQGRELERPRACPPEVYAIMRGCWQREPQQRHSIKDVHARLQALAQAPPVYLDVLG

| SMILES | IC50 (NTRK2) | IC50 (NTRK1; read-out: NTRK1 IC50) | IC50 (NTRK3) | further results |
| --- | --- | --- | --- | --- |
| Cc1nnc2n1-c1ccc(Cl)cc1C(c1ccccc1)=NC2 [Alprazolam] | – | – | – | half-life [1]: 350 min; half-life [2]: 731 min |
| O=C(Nc1cccc(C(F)(F)F)c1)N(Cc1ccn2nccc2c1)C1CCC1 [CDD-2273, 1-cyclobutyl-1-(pyrazolo[1,5-a]pyridin-5-ylmethyl)-3-(3-(trifluoromethyl)phenyl)urea] | 1.32 µM | – | – | half-life [1]: 8.2 min; half-life [2]: 15.5 min |
| O=C(Nc1ccc(OC(F)(F)F)cc1)N(Cc1ccn2nccc2c1)C1CC1 [CDD-2275, 1-cyclopropyl-1-(pyrazolo[1,5-a]pyridin-5-ylmethyl)-3-(4-(trifluoromethoxy)phenyl)urea] | 0.046 µM | – | – | half-life [1]: 56 min; half-life [2]: 90 min |
| O=C(Nc1ccc(OC(F)(F)F)cc1)N(Cc1ccn2nccc2c1)C1CCCC1 [CDD-2276, 1-cyclopentyl-1-(pyrazolo[1,5-a]pyridin-5-ylmethyl)-3-(4-(trifluoromethoxy)phenyl)urea] | 0.019 µM | – | – | half-life [1]: 35 min; half-life [2]: 14 min |
| O=C(Nc1ccc(OC(F)(F)F)cc1)N(Cc1ccn2nccc2c1)c1ccccc1 [CDD-2296, 1-phenyl-1-(pyrazolo[1,5-a]pyridin-5-ylmethyl)-3-(4-(trifluoromethoxy)phenyl)urea] | 0.335 µM | – | – | – |
| O=C(Nc1ccc([N+](=O)[O-])cc1)N(Cc1ccn2nccc2c1)C1CCC1 [CDD-2297, 1-cyclobutyl-3-(4-nitrophenyl)-1-(pyrazolo[1,5-a]pyridin-5-ylmethyl)urea] | > 10 µM | – | – | – |
| O=C(Nc1ccc(OC(F)(F)F)cc1)N(Cc1ccn2nccc2c1)C1CCCCC1 [CDD-2298, 1-cyclohexyl-1-(pyrazolo[1,5-a]pyridin-5-ylmethyl)-3-(4-(trifluoromethoxy)phenyl)urea] | 0.099 µM | – | – | – |
| O=C(Nc1ccccc1OC(F)(F)F)N(Cc1ccn2nccc2c1)C1CCC1 [CDD-2300, 1-cyclobutyl-1-(pyrazolo[1,5-a]pyridin-5-ylmethyl)-3-(2-(trifluoromethoxy)phenyl)urea] | > 10 µM | – | – | – |
| O=C(Nc1ccc(OC(F)(F)F)cc1)N(Cc1ccn2nccc2c1)C1CCCCCC1 [CDD-2301, 1-cycloheptyl-1-(pyrazolo[1,5-a]pyridin-5-ylmethyl)-3-(4-(trifluoromethoxy)phenyl)urea] | 0.513 µM | – | – | – |
| CC(C)N(Cc1ccn2ncc(F)c2c1)C(=O)Nc1ccc(OC(F)(F)F)cc1 [CDD-2734, 1-((3-fluoropyrazolo[1,5-a]pyridin-5-yl)methyl)-1-isopropyl-3-(4-(trifluoromethoxy)phenyl)urea] | 0.0053 µM | 0.036 µM | – | half-life [1]: 21 min; half-life [2]: 58 min |
| CC(C)N(Cc1ccn2ncc(Br)c2c1)C(=O)Nc1ccc(OC(F)(F)F)cc1 [CDD-2735, 1-((3-bromopyrazolo[1,5-a]pyridin-5-yl)methyl)-1-isopropyl-3-(4-(trifluoromethoxy)phenyl)urea] | 0.0036 µM | 0.0043 µM | 0.0044 µM | – |
| O=C(O)c1cnn2ccc(CN(C(=O)Nc3ccc(OC(F)(F)F)cc3)C3CC3)cc12 [CDD-2736, 5-((1-cyclopropyl-3-(4-(trifluoromethoxy)phenyl)ureido)methyl)pyrazolo[1,5-a]pyridine-3-carboxylic acid] | 0.0025 µM | 0.0041 µM | 0.0033 µM | – |
| CC(C)CN(Cc1ccn2ncc(C(=O)O)c2c1)C(=O)Nc1ccc(OC(F)(F)F)cc1 [CDD-2742, 5-((1-isobutyl-3-(4-(trifluoromethoxy)phenyl)ureido)methyl)pyrazolo[1,5-a]pyridine-3-carboxylic acid] | 0.0057 µM | 0.104 µM | 0.0118 µM | – |
| CCC(C)N(Cc1ccn2ncc(C(=O)O)c2c1)C(=O)Nc1ccc(OC(F)(F)F)cc1 (centres unmarked) [CDD-2743, 5-((1-(sec-butyl)-3-(4-(trifluoromethoxy)phenyl)ureido)methyl)pyrazolo[1,5-a]pyridine-3-carboxylic acid] | 0.006 µM | 0.0095 µM | 0.0054 µM | – |
| CC[C@@H](C)N(Cc1ccn2ncc(C(N)=O)c2c1)C(=O)Nc1ccc(OC(F)(F)F)cc1 [CDD-3057, (R)-5-((1-(sec-butyl)-3-(4-(trifluoromethoxy)phenyl)ureido)methyl)pyrazolo[1,5-a]pyridine-3-carboxamide] | 0.004 µM | 0.0176 µM | 0.0066 µM | – |
| CC[C@H](C)N(Cc1ccn2ncc(C(N)=O)c2c1)C(=O)Nc1ccc(OC(F)(F)F)cc1 [CDD-3058, (S)-5-((1-(sec-butyl)-3-(4-(trifluoromethoxy)phenyl)ureido)methyl)pyrazolo[1,5-a]pyridine-3-carboxamide] | 0.0037 µM | 0.0117 µM | 0.0084 µM | – |
| CN(C)C(=O)[C@H](Cc1cccc([N+](=O)[O-])c1)NC(=O)Nc1c(Cl)cccc1C(F)(F)F [CDD-3099, (S)-2-(3-(2-chloro-6-(trifluoromethyl)phenyl)ureido)-N,N-dimethyl-3-(3-nitrophenyl)propanamide] | 47.4 µM | – | – | IC50 (NTRK1): 39.6 µM |

| SMILES | IC50 (NTRK2) | IC50 (NTRK1; read-out: NTRK1 IC50) | IC50 (NTRK3) | further results |
| --- | --- | --- | --- | --- |
| CNC(=O)[C@@H](Cc1ccc([N+](=O)[O-])cc1)NC(=O)Nc1ccc(Oc2ccccc2)cc1 [CDD-3100, (R)-N-methyl-3-(4-nitrophenyl)-2-(3-(4-phenoxyphenyl)ureido)propanamide] | 37.2 µM | 26.3 µM | – | – |
| CC(C)c1ccc(OCC(=O)N(C)Cc2ccn3ncc(C(N)=O)c3c2)cc1 [CDD-3120, 5-((2-(4-isopropylphenoxy)-N-methylacetamido)methyl)pyrazolo[1,5-a]pyridine-3-carboxamide] | 0.242 µM | 1.78 µM | – | – |
| CN(Cc1ccn2ncc(C(N)=O)c2c1)C(=O)CCc1ccc(OC(F)(F)F)cc1 [CDD-3121, 5-((N-methyl-3-(4-(trifluoromethoxy)phenyl)propanamido)methyl)pyrazolo[1,5-a]pyridine-3-carboxamide] | 3.24 µM | 11.6 µM | – | – |
| CC(C)c1ccc(OCC(=O)NCc2ccn3ncc(C(N)=O)c3c2)cc1 [CDD-3129, 5-((2-(4-isopropylphenoxy)acetamido)methyl)pyrazolo[1,5-a]pyridine-3-carboxamide] | 3.77 µM | 9.54 µM | – | – |
| NC(=O)c1cnn2ccc(CNC(=O)Nc3ccc(OC(F)(F)F)cc3)cc12 [CDD-3130, 5-((3-(4-(trifluoromethoxy)phenyl)ureido)methyl)pyrazolo[1,5-a]pyridine-3-carboxamide] | 1.27 µM | 9.2 µM | – | – |
| CN(Cc1ccn2ncc(C(N)=O)c2c1)C(=O)COc1ccc(C(F)(F)F)cc1 [CDD-3181, 5-((N-methyl-2-(4-(trifluoromethyl)phenoxy)acetamido)methyl)pyrazolo[1,5-a]pyridine-3-carboxamide] | 1.06 µM | 6.72 µM | – | – |
| CN(Cc1ccn2ncc(C(N)=O)c2c1)C(=O)COc1cccc(OC(F)(F)F)c1 [CDD-3182, 5-((N-methyl-2-(3-(trifluoromethoxy)phenoxy)acetamido)methyl)pyrazolo[1,5-a]pyridine-3-carboxamide] | 0.354 µM | 4.06 µM | – | – |
| CN(Cc1ccn2ncc(C(N)=O)c2c1)C(=O)COc1ccc(C(C)(C)C)cc1 [CDD-3183, 5-((2-(4-(tert-butyl)phenoxy)-N-methylacetamido)methyl)pyrazolo[1,5-a]pyridine-3-carboxamide] | 0.247 µM | 3.61 µM | – | – |
| CN(Cc1ccn2ncc(C(N)=O)c2c1)C(=O)CN(C)c1ccc(C(C)(C)C)cc1 [CDD-3185, 5-((2-((4-(tert-butyl)phenyl)(methyl)amino)-N-methylacetamido)methyl)pyrazolo[1,5-a]pyridine-3-carboxamide] | 1.75 µM | 10.9 µM | – | – |
| CC(C)N(Cc1ccc2[nH]ccc2c1)C(=O)COc1ccc(OC(F)(F)F)cc1 [CDD-3264, N-((1H-indol-5-yl)methyl)-N-isopropyl-2-(4-(trifluoromethoxy)phenoxy)acetamide] | 2.09 µM | 43.9 µM | 21.8 µM | – |
| CC(C)N(Cc1ccc2[nH]ccc2c1)C(=O)Nc1ccc(OC(F)(F)F)cc1 [CDD-3265, 1-((1H-indol-5-yl)methyl)-1-isopropyl-3-(4-(trifluoromethoxy)phenyl)urea] | 53.7 µM | 50.1 µM | 55.1 µM | – |
| CC(C)N(Cc1ccn2nccc2c1)C(=O)CNc1ccc(C(C)(C)C)nc1 [CDD-3306, 2-((6-(tert-butyl)pyridin-3-yl)amino)-N-isopropyl-N-(pyrazolo[1,5-a]pyridin-5-ylmethyl)acetamide] | 1.13 µM | 2.41 µM | 4.77 µM | – |
| CC(C)N(Cc1ccn2nccc2c1)C(=O)CNc1ccc(C2(C(F)(F)F)CC2)cc1 [CDD-3307, N-isopropyl-N-(pyrazolo[1,5-a]pyridin-5-ylmethyl)-2-((4-(1-(trifluoromethyl)cyclopropyl)phenyl)amino)acetamide] | 0.414 µM | 2.17 µM | 0.922 µM | – |
| CN(Cc1ccn2ncc(C(N)=O)c2c1)S(=O)(=O)Nc1ccc(OC(F)(F)F)cc1 [CDD-3308, 5-((methyl(N-(4-(trifluoromethoxy)phenyl)sulfamoyl)amino)methyl)pyrazolo[1,5-a]pyridine-3-carboxamide] | 4.45 µM | 28.4 µM | 4.32 µM | – |
| C[C@H]1CNC(=O)c2cnn3ccc(nc23)N[C@H](C)c2cc(F)ccc2O1 [Reprotrectinib, (3R,11S)-6-fluoro-3,11-dimethyl-10-oxa-2,13,17,18,21-pentazatetracyclo[13.5.2.04,9.018,22]docosa-1(21),4(9),5,7,15(22).16,19-heptaen-14-one, reference compound] | – | – | – | MLM t1/2 [1]: 167 min; HLM t1/2 [2]: 254 min |
| C[C@@H]1CCc2ncc(F)cc2[C@H]2CCCN2c2ccn3ncc(c3n2)C(=O)N1 [Selitrectinib, (6R,15R)-9-fluoro-15-methyl-2,11,16,20,21,24-hexazapentacyclo[16.5.2.02,6.07,12.021,25]pentacosa-1(24),7(12),8,10,18(25),19,22-heptaen-17-one, reference compound] | – | – | – | half-life [1]: 32 min; half-life [2]: 244 min |

Reference: US20260049077A1, “Neurotrophic Receptor Tyrosine Kinase (NTRK) Inhibitors and Methods Using Same” (Baylor College of Medicine, priority 2022, published 2026)
